Experimental data reported in patent US10759799B2, “Indazole containing macrocycles and therapeutic uses thereof” (Samumed, LLC, priority 2018, dated 2020).
Like-named read-outs stand apart in the source and are kept apart here.

Experiments:
[1] = system: primary human mesenchymal stem cells (hMSCs); test: Chondrogenesis induction in hMSCs (Rhodamine B staining intensity, EC50); assay type: cell-based; conditions: 6 days, Rhodamine B staining intensity of nodules
Description: Representative compounds were screened using primary human mesenchymal stem cells (hMSCs) to determine their ability to induce chondrogenesis (process by which cartilage is developed).
Primary human mesenchymal stem cells (hMSCs) were purchased from Lonza (Walkersville, Md.) and expanded in Mesenchymal Stem Cell Growth Media (Lonza). Cells between passage 2 and 4 were used for the experiments.
To image chondrogenic nodules, the cells were fixed using 4% formaldehyde (Electron Microscopy Sciences), and stained with 2 μg/mL Rhodamine B (Sigma-Aldrich) and 20 μM Nile Red (Sigma-Aldrich) [Johnson K., et. al, A Stem Cell-Based Approach to Cartilage Repair, Science, (2012), 336(6082). […] Rhodamine B staining intensity of nodules in each well was normalized to the average of 3 DMSO treated wells on the same plate using Excel (Microsoft Inc.). The normalized averages (fold change over DMSO) of 3 replicate wells for each compound concentration were calculated. EC50 values were calculated using non-linear regression curve fitting in Prism 8 (Graphpad Inc.). Due to solubility limitations of some of the compounds, curve fitting was incomplete, and the highest observed activity was extrapolated to the insoluble doses for accurate EC50 determinations.
EC50 values are reported. Further, using TGF-β3 as a positive control, the concentration of representative compounds required to induce equivalent levels of chondrogenesis is reported. In addition, the maximum activity of each compound and the respective dose that each compound reached maximum chondrogenesis activity is reported.

[2] = target: recombinant DYRK1A kinase (Homo sapiens (Human), UniProt Q13627); test: DYRK1A kinase assay (Ser/Thr 18 peptide Z-lyte, FRET); assay type: biochemical; conditions: 30 μM ATP, one hour at room temperature, read-out: EC50 (μM) (IC50 per method)
Description: Representative compounds were screened using the assay procedure for DYRK1A kinase activity as described below.
(§1) The DYRK1A kinase assay was run using the Ser/Thr 18 peptide Z-lyte assay kit according to manufacturer's instructions (Life Technologies—a Division of Thermo-Fisher). This is a non-radioactive assay using fluorescence resonance energy transfer (FRET) between coumarin and fluorescein to detect kinase activity which is represented as a ratio of coumarin emission/fluorescein emission.
Briefly, recombinant DYRK1A kinase, ATP and Ser/Thr peptide 18 were prepared in 1× Kinase buffer to final concentrations of 0.19 μg/mL, 30 μM, and 4 μM respectively. The mixture was allowed to incubate with the representative compounds for one hour at room temperature. All reactions were performed in duplicate. Unphosphorylated (“0% Control”) and phosphorylated (“100% control”) forms of Ser/Thr 18 served as control reactions. Additionally, an 11-point dose-response curve of Staurosporine (1 uM top) was run to serve as a positive compound control.
After incubation, Development Reagent A was diluted in Development Buffer then added to the reaction and allowed to further incubate for one hour at room temperature. The plate was read at Ex 400 Em 455 to detect the coumarin signal and Ex 400 Em 520 to measure the signal (EnVision Multilabel Plate Reader, PerkinElmer).
The Emission ratio (Em) was calculated as a ratio of the coumarin (C) emission signal (at 445 nm)/Fluorescein (F) emission signal (at 520 nm). The percent phosphorylation was then calculated using the following formula: [1−((Em ratio×F100%)−C100%)/((C0%−C100%)+(Em ratio×(F100%−F0%)))].

[3] = system: primary human fibroblasts derived from IPF patients (LL29 cells); test: Inhibition of TGF-β1 induced fibrosis (αSMA staining) in LL29 fibroblasts; assay type: cell-based; conditions: Fibroblast, 96 h, LL29 cells, TGF-β1 20 ng/mL, 4 days, % αSMA positive cells
Procedure: Representative compounds were screened using primary human fibroblasts (derived from IPF patients) treated with TGF-β1 to determine their ability to inhibit the fibrotic process.
LL29 cells were plated at 1,500 cells/well in 70 μL/well F12 medium supplemented with 1% Fetal Bovine Serum. […] Wells treated with TGF-β1 and containing DMSO were used as positive control, and cells with only DMSO were negative control. […] Following incubation for 4 days, SYTOX green nucleic acid stain (Life Technologies [Thermo Fisher Scientific]) was added to the wells at a final concentration of 1 μM and incubated at room temperature for 30 min.

[4] = system: SW480 colon carcinoma cells; test: Cell viability assay (CellTiter-Glo) in SW480 cells; assay type: cell-based; conditions: Homo sapiens; for EC50: 96 h, SW480 cell viability, four days, CellTiter-Glo
Procedure: Representative compounds were screened using the assay procedure to assess the effect on cell viability as described below.
SW480 colon carcinoma cells were transduced with a lentiviral vector expressing luciferase with a human Sp5 promoter consisting of a sequence of eight TCF/LEF binding sites. SW480 cells stably expressing the Sp5-Luc reporter gene and a hygromycin resistance gene were selected by treatment with 150 μg/mL of hygromycin for 7 days. These stably transduced SW480 cells were expanded in cell culture and used for all further screening activities.
For the Cell Viability Assays, the cells were plated at 2,000 cells/well in 384-well plates with a DMEM medium containing 1% fetal bovine serum, and 1% Penicillin-Streptomycin and incubated for […] at 37° C. and 5% CO2. Eight replicates of DMSO-treated cells served as controls and cells treated with compound were performed in duplicate.
After incubation, 10 μL of CellTiter-Glo (Promega) was added to each well allowed to incubate for approximately 12 minutes. This reagent “results in cell lysis and generation of a luminescent signal proportional to the amount of ATP present. The amount of ATP is directly proportional to the number of cells present in culture, in agreement with previous reports. The CellTiter-Glo Assay generates a “glow-type” luminescent signal, produced by the luciferase reaction (Promega.com)”.

recombinant GSK3β kinase = recombinant GSK3β kinase (Homo sapiens (Human), UniProt P49841); test: GSK3β kinase assay (Ser/Thr 09 peptide Z-lyte, FRET); assay type: biochemical; conditions: 46 μM ATP, one hour at room temperature, read-out: EC50 (μM) (IC50 per method)
Chain of recombinant GSK3β kinase (P49841 whole entry): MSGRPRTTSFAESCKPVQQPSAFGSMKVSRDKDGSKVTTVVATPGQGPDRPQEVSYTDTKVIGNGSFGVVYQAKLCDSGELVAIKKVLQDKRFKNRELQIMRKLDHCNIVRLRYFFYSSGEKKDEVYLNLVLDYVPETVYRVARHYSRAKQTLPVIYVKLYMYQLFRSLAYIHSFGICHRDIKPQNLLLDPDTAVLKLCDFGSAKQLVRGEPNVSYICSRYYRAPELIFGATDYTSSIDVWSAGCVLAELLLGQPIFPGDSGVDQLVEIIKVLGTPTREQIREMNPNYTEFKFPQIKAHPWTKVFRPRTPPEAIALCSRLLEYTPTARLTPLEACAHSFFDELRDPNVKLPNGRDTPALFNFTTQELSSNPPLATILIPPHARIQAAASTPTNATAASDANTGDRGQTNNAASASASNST
Description: Representative compounds were screened using the assay procedure for GSK3β kinase activity as described below.
as §1, with “GSK3β” for “DYRK1A”, “is” for “was”, “09” for “18”, “as” for “as a”
Briefly, recombinant GSK3β kinase, ATP and Ser/Thr peptide 09 are prepared in 1× Kinase buffer to final concentrations of 0.04 μg/mL, 46 μM, and 4 μM respectively. The mixture is allowed to incubate with the representative compounds for one hour at room temperature. All reactions were performed in duplicate. Unphosphorylated (“0% Control”) and phosphorylated (“100% control”) forms of […] serve as control reactions.
After incubation, diluted Development Buffer is added to the reaction and allowed to further incubate for one hour at room temperature. The plate is read at Ex 400 Em 455 to detect the coumarin signal and Ex 400 Em 520 to measure the signal (EnVision Multilabel Plate Reader, PerkinElmer).
The Emission ratio (Em) is calculated as a ratio of the coumarin (C) emission signal (at 445 nm)/Fluorescein (F) emission signal (at 520 nm). The percent phosphorylation is then calculated using the following formula: [1−((Em ratio×F100%)−C100%)/((C0%−C100%)+(Em ratio×(F100%−F0%)))].
Dose-response curves are generated and inhibitory concentration (IC50) values are calculated using non-linear regression curve fit in the Dotmatics' Studies Software (Bishops Stortford, UK).

[5] = system: Wnt activity (Sp5-Luc reporter, SW480 colon carcinoma cells); test: Sp5-Luc reporter gene screening assay for Wnt activity in SW480 cells; assay type: cell-based; conditions: Homo sapiens; Sp5-Luc reporter, SW480 cells, 36 to 48 hours
Description: The screening assay for Wnt activity is described as follows. Reporter cell lines can be generated by stably transducing cancer cell lines (e.g., colon cancer) or primary cells (e.g., IEC-6 intestinal cells) with a lentiviral construct that includes a Wnt-responsive promoter driving expression of the firefly luciferase gene.
SW480 colon carcinoma cells were transduced with a lentiviral vector expressing luciferase with a human Sp5 promoter consisting of a sequence of eight TCF/LEF binding sites. SW480 cells stably expressing the Sp5-Luc reporter gene and a hygromycin resistance gene were selected by treatment with 150 μg/mL of hygromycin for 7 days. These stably transduced SW480 cells were expanded in cell culture and used for all further screening activities. […] For Sp5-Luc reporter gene assays, the cells were plated at 4,000 cells/well in 384-well plates with a DMEM medium containing 1% fetal bovine serum, and 1% Penicillin-Streptomycin and incubated for 36 to 48 hours at 37° C. and 5% CO2. Following incubation, 15 μl of BriteLite Plus luminescence reagent (Perkin Elmer) was added to each well of the 384-well assay plates. The plates were placed on an orbital shaker for 2 min and then luminescence was quantified using the Envision (Perkin Elmer) plate reader. Readings were normalized to DMSO only treated cells, and normalized activities were utilized for EC50 calculations using the dose-response log (inhibitor) vs. response-variable slope (four parameters) nonlinear regression feature available in GraphPad Prism 5.0 (or Dotmatics).

[6] = DMF

| EC50 [1] | IC50 [2] | EC50 [4] | IC50 (recombinant GSK3β kinase) | EC50 [5] | Molecule | further results |
| --- | --- | --- | --- | --- | --- | --- |
| 3.12 µM | 0.014 µM | 0.035 µM | 0.014 µM | 0.017 µM | O=C1CCCc2cccc(c2)-c2cccc3[nH]c(nc23)-c2n[nH]c3ccc(cc23)-c2cncc(c2)N1 [Compound 71] | EC50 [3]: 0.021 µM |
| – | – | – | – | – | (Z)-5,10-Dimethyl-1^1H,2^1H-5,10-diaza-1(2,4)-imidazo[4,5-c]pyridina-2(3,5)-indazola-3(3,5)-pyridinacyclodecaphane | ring closure, isolated yield ([6]; amine bond, 18-membered ring, KI/DIEA, 42.4 mM, 90.0 °C): 9.7% |
| – | – | – | – | – | O=C1CCc2cccc(c2)-c2cccc3[nH]c(nc23)-c2nn(C(c3ccccc3)(c3ccccc3)c3ccccc3)c3ccc(cc23)-c2cncc(c2)N1 | ring closure, isolated yield ([6]; from Nc1cncc(-c2ccc3c(c2)c(-c2nc4c(-c5cccc(CCC(=O)O)c5)cccc4[nH]2)nn3C(c2ccccc2)(c2ccccc2)c2ccccc2)c1, amide bond, 18-membered ring, HATU/DIEA/DMAP, 17.5 mM, 70.0 °C): 49.2% |
| 0.009 µM | 0.096 µM | 0.054 µM | 0.062 µM | 0.034 µM | c1cc2cc(c1)-c1cccc3[nH]c(nc13)-c1n[nH]c3ccc(cc13)-c1cncc(n1)NCCO2 [Compound 109] | ring closure, isolated yield ([6]; from NCCOc1cccc(-c2cccc3[nH]c(-c4n[nH]c5ccc(-c6cncc(Cl)n6)cc45)nc23)c1, snar bond, 18-membered ring, DIEA, 19.0 mM, 110.0 °C): 26.4% |
| – | – | – | – | – | c1ccc(C(c2ccccc2)(c2ccccc2)n2nc3c4cc(ccc42)-c2cncc(c2)OCCCc2cccc(c2)-c2cccc4[nH]c-3nc24)cc1 | ring closure, isolated yield ([6]; from Oc1cncc(-c2ccc3c(c2)c(-c2nc4c(-c5cccc(CCCBr)c5)cccc4[nH]2)nn3C(c2ccccc2)(c2ccccc2)c2ccccc2)c1, ether bond, 18-membered ring, K2CO3, 20.0 mM, 80.0 °C): 50.8% |
| 0.069 µM | 0.204 µM | > 10 µM | 0.494 µM | 7.66 µM | O=C1CCc2cccc(c2)-c2ccnc3[nH]c(nc23)-c2n[nH]c3ccc(cc23)-c2cncc(c2)N1 [Compound 4, (Z)-2^3H,3^1H-5-aza-2(7,2)-imidazo[4,5-b]pyridina-3 (3,5)-indazola-4(3,5)-pyridina-1(1,3)-benzenacyclooctaphan-6-one] | inhibition at 10 µM ([4]; SW480, read-out: percent inhibition at 10 μM): 49.5% |
| – | – | – | – | – | CN1CCCn2cc(nn2)-c2nccc3[nH]c(nc23)-c2n[nH]c3ccc(cc23)-c2cncc(c2)C1 | ring closure, isolated yield ([6]; from CNCc1cncc(-c2ccc3[nH]nc(-c4nc5c(-c6cn(CCCCl)nn6)nccc5[nH]4)c3c2)c1, amine bond, 19-membered ring, DIEA, 16.7 mM, 100.0 °C): 71.9% |
